Laboratory results taken from article PMC7489219 (Molecular Brain, 2020).
Counter-ions that a name gives are not always drawn.

System: T1, primary mouse cortical neurons
T1 construct: primary cortical neurons, DIV 10
Assay: cells
Parameters: Protection from NMDA-induced (30 uM, 10 min) neuronal death; Hoechst nuclear morphology by automated microscopy
Conditions: Cortical neurone, 20 h, read-out: % inhibition, inhibition of NMDA-induced cell death (protection score), 30 min pre-treatment
Method in brief: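 On DIV 10, primary mouse cortical neurons were given compound at 10 μM for 30 min at 37 °C, then 30 μM NMDA for 10 min, washed, and kept 20 h with compound. Dead cells were scored by nuclear morphology, and % protection was derived from survival relative to vehicle + NMDA and untreated controls.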

Compound | inhibition at 10 µM [%]
CCN(CC)CC#CCOC(=O)C(O)(c1ccccc1)C1CCCCC1 (stereo not drawn) [Oxybutynin (Ditropan)] | 37.3
O=C1CCC[C@@H]2[C@H]3CCC[N@+]4([O-])CCC[C@@H](CN12)[C@@H]34 [Oxymatrine (Matrine N-oxide)] | -1.44
Cc1cc(C(C)(C)C)c(O)c(C)c1CC1=NCCN1 [Oxymetazoline hydrochloride] | -9.52
CN(C)[C@@H]1C(=O)C(C(N)=O)=C(O)[C@@]2(O)C(=O)C3=C(O)c4c(O)cccc4[C@@](C)(O)[C@H]3[C@H](O)[C@@H]12 [Oxytetracycline (Terramycin)] | 2.79
O=C(O)/C=C/c1ccc(Cn2ccnc2)cc1 [Ozagrel] | -9.99
CC(=O)O[C@H]1C(=O)[C@@]2(C)[C@H]([C@H](OC(=O)c3ccccc3)[C@]3(O)C[C@H](OC(=O)[C@H](O)[C@@H](NC(=O)c4ccccc4)c4ccccc4)C(C)=C1C3(C)C)[C@]1(OC(C)=O)CO[C@@H]1C[C@@H]2O [Paclitaxel (Taxol)] | -12.8
COc1ccc(C(C)=O)c(O)c1 [Paeonol (Peonol)] | -2.06
Cc1nc2n(c(=O)c1CCN1CCC(c3noc4cc(F)ccc34)CC1)CCCC2O (stereo not drawn) [Paliperidone (Invega)] | -1.54
COc1cc2c(cc1OC)-c1cc3ccc(OC)c(OC)c3c[n+]1CC2 [Palmatine chloride] | 8.5
CC(=O)O[C@H]1C[C@@H]2CC[C@@H]3[C@H](CC[C@@]4(C)[C@H]3C[C@H]([N+]3(C)CCCCC3)[C@@H]4OC(C)=O)[C@@]2(C)C[C@@H]1[N+]1(C)CCCCC1 [Pancuronium (Pavulon)] | 7.54
C=C1C(=O)O[C@H]2[C@H]1CC/C(C)=C/CC[C@@]1(C)O[C@@H]21 [Parthenolide ((-)-Parthenolide)] | -3.83
Cc1ccc(Nc2nccc(N(C)c3ccc4c(C)n(C)nc4c3)n2)cc1S(N)(=O)=O [Pazopanib HCl] | -2.36
Nc1nc2[nH]cc(CCc3ccc(C(=O)N[C@@H](CCC(=O)O)C(=O)O)cc3)c2c(=O)[nH]1 [Pemetrexed] | 0.519
CCC[C@H](N[C@@H](C)C(=O)N1[C@H](C(=O)O)C[C@@H]2CCCC[C@@H]21)C(=O)OCC [Perindopril Erbumine (Aceon)] | -1.31
CCCCC1C(=O)N(c2ccccc2)N(c2ccccc2)C1=O [Phenylbutazone (Butazolidin, Butatron)] | 47.4
O=C1NC(=O)C(c2ccccc2)(c2ccccc2)N1 [Phenytoin (Lepitoin)] | 21.2
O=C1N=C(O)NC1(c1ccccc1)c1ccccc1 [Phenytoin sodium (Dilantin)] | 3.12
O=C(CCc1ccc(O)cc1)c1c(O)cc(O)cc1O [Phloretin (Dihydronaringenin)] | -1.62
O=C(CCc1ccc(O)cc1)c1c(O)cc(O)cc1O[C@@H]1O[C@H](CO)[C@@H](O)[C@H](O)[C@H]1O [Phlorizin (Phloridzin)] | -2.89
COc1ccc(-c2nc3cc(C4=NNC(=O)CC4C)ccc3[nH]2)cc1 (stereo not drawn) [Pimobendan (Vetmedin)] | -0.217
O=C(/C=C/C=C/c1ccc2c(c1)OCO2)N1CCCCC1 [Piperine (1-Piperoylpiperidine)] | -1.51
CN1C(C(=O)Nc2ccccn2)=C(O)c2ccccc2S1(=O)=O [Piroxicam (Feldene)] | 4.8
O=C(O)C[C@H](O)C[C@H](O)/C=C/c1c(C2CC2)nc2ccccc2c1-c1ccc(F)cc1 [Pitavastatin calcium (Livalo)] | 17.7
OC[C@H]1O[C@@H](Oc2cc(O)cc(C=Cc3ccc(O)cc3)c2)[C@H](O)[C@@H](O)[C@@H]1O [Polydatin (Piceid)] | 1.2

Compound | inhibition at 10 µM [%]
CC[C@@H]([C@H](C)O)n1ncn(-c2ccc(N3CCN(c4ccc(OC[C@@H]5CO[C@@](Cn6cncn6)(c6ccc(F)cc6F)C5)cc4)CC3)cc2)c1=O [Posaconazole] | -12.5
CCCN[C@H]1CCc2nc(N)sc2C1 [Pramipexole dihydrochloride monohydrate] | -0.655
CC(=O)Oc1cc2c(s1)CCN(C(C(=O)C1CC1)c1ccccc1F)C2 (stereo not drawn) [Prasugrel (Effient)] | -7.75
C[C@]12C=CC(=O)C=C1CC[C@@H]1[C@@H]2[C@@H](O)C[C@@]2(C)[C@H]1CC[C@]2(O)C(=O)CO [Prednisolone (Hydroretrocortine)] | 4.33
CC(=O)OCC(=O)[C@@]1(O)CC[C@H]2[C@@H]3CCC4=CC(=O)C=C[C@]4(C)[C@H]3[C@@H](O)C[C@@]21C [Prednisolone acetate (Omnipred)] | -1.13
C[C@]12C=CC(=O)C=C1CC[C@@H]1[C@@H]2C(=O)C[C@@]2(C)[C@H]1CC[C@]2(O)C(=O)CO [Prednisone (Adasone)] | 28.4
CCCNC(C)C(=O)Nc1ccccc1C (stereo not drawn) [Prilocaine] | 7.71
CCC1(c2ccccc2)C(=O)NCNC1=O [Primidone (Mysoline)] | 27.9
CC(=O)[C@H]1CC[C@H]2[C@@H]3CCC4=CC(=O)CC[C@]4(C)[C@H]3CC[C@]12C [Progesterone (Prometrium)] | 7.11
O=c1c(-c2ccc(O)cc2)coc2c([C@@H]3O[C@H](CO)[C@@H](O)[C@H](O)[C@H]3O)c(O)ccc12 [Puerarin (Kakonein)] | -3.03
NC(=O)c1cnccn1 [Pyrazinamide (Pyrazinoic acid amide)] | 15.2
CN(C)C(=O)Oc1ccc[n+](C)c1 [Pyridostigmine Bromide (Mestinon)] | 35.3
CCc1nc(N)nc(N)c1-c1ccc(Cl)cc1 [Pyrimethamine] | -0.769
OCCOCCN1CCN(C2=Nc3ccccc3Sc3ccccc32)CC1 [Quetiapine fumarate (Seroquel)] | 0.552
C=C[C@H]1CN2CC[C@H]1C[C@H]2[C@H](O)c1ccnc2ccc(OC)cc12 [Quinine hydrochloride dihydrate] | -0.947
CC(=O)SCC(Cc1ccccc1)C(=O)NCC(=O)OCc1ccccc1 (stereo not drawn) [Racecadotril (Acetorphan)] | -7.37
Cc1nnc(C(=O)NC(C)(C)c2nc(C(=O)NCc3ccc(F)cc3)c(O)c(=O)n2C)o1 [Raltegravir (MK-0518)] | 8.86
CCC(=O)NCC[C@@H]1CCc2ccc3c(c21)CCO3 [Ramelteon (TAK-375)] | -3.3
CCOC(=O)[C@H](CCc1ccccc1)N[C@@H](C)C(=O)N1[C@H](C(=O)O)C[C@@H]2CCC[C@@H]21 [Ramipril (Altace)] | -0.755
CN/C(=C\[N+](=O)[O-])NCCSCc1ccc(CN(C)C)o1 [Ranitidine (Zantac)] | 1.37
CO[C@H]1C[C@@H]2CC[C@@H](C)[C@@](O)(O2)C(=O)C(=O)N2CCCC[C@H]2C(=O)O[C@H]([C@H](C)C[C@@H]2CC[C@@H](O)[C@H](OC)C2)CC(=O)[C@H](C)/C=C(\C)[C@@H](O)[C@@H](OC)C(=O)[C@H](C)C[C@H](C)/C=C/C=C/C=C/1C [Rapamycin (Sirolimus)] | -1.51
CCOc1cc(CC(=O)N[C@@H](CC(C)C)c2ccccc2N2CCCCC2)ccc1C(=O)O [Repaglinide] | -4.69
COC(=O)[C@H]1[C@H]2C[C@@H]3c4[nH]c5cc(OC)ccc5c4CCN3C[C@H]2C[C@@H](OC(=O)c2cc(OC)c(OC)c(OC)c2)[C@@H]1OC [Reserpine] | 24
Oc1ccc(/C=C/c2cc(O)cc(O)c2)cc1 [Resveratrol] | 22.8
